Results taken from PMC8949944, “The Effect of Microbubble-Assisted Ultrasound on Molecular Permeability across Cell Barriers” (Pharmaceutics, 2022).
“And” between values parts separate entries of the source, which are not always exact repeats. Equal values may be shown once. “Also recorded” adds a separate entry of the source.

Legend:
[1] = Permeability of model drugs across epithelial (MDCK II) barrier on transwell after USMB or sham treatment; format: in vitro ADME, canine; conditions: dog, MDCK; 0 MPa (sham); apical-to-basolateral; read-out: apparent permeability coefficient (Papp)
Experimental: (§1) For the permeability studies, epithelial cells were cultured as tight monolayers on transwell membranes. […] Prior to cell seeding, the transwell membranes were equilibrated for 10 min with culture medium at room temperature. […] The permeability of various test compounds across epithelial monolayers cultured on transwell membranes was studied in the apical-to-basolateral direction (Figure 1A). […] Ultrasound experiments were performed using an unfocused, single-element transducer with 20 mm diameter (PA420, Precision Acoustics, Dorchester, UK). […] The resulting signal was then amplified (AG1012, T&C Power Conversion Inc., New York, NY, USA) before it was sent to the ultrasound transducer. A dedicated sonication tank compatible with transwell inserts was used for the USMB experiments (Figure 1B). The ultrasound transducer was positioned at the bottom of the bath and about 250 mL of PBS at 37 °C was added. Subsequently, the transwell insert was immersed in the bath with the transwell membrane covered with cells facing down (Figure 1B) at a fixed axial distance (80 mm) from the ultrasound transducer. Transwell inserts were randomly assigned to USMB-treated or sham-treated sample groups. Following immersion of USMB-treated samples in the sonication bath, 500 μL of freshly mixed SonoVue^TM microbubbles (Bracco, Milan, Italy) was injected near the cells using a curved-tip 19G needle (Figure 1C). […] Microbubbles were allowed to float for 1 min so that direct contact with the cells was assured. Subsequently, ultrasound was applied for 1 min with acoustic peak negative pressure (Pneg) ranging between 0.3 and 0.7 MPa. […] Sham-treated samples were immersed in the PBS bath for 2 min and served as negative controls (0 MPa). […] Immediately after USMB treatment, transwell inserts were removed from the sonication bath (containing PBS) and were placed in a new six-well plate. […] The initial concentration of test compounds on the apical side was 1 μCi/mL for propranolol and mannitol and 200 μM for 6-carboxyfluorescein and fluorescent dextrans. An overview of the relevant physicochemical characteristics of the test compounds used in the permeability experiments is given in Table 1. […] The volume of removed sample was replaced with fresh HBSS. During the experiment, cells were kept at 37 °C and shaking at 170 rounds per minute. In the experiments where fluorescent compounds were used, samples were protected from light at all times. The samples containing radioactively-labelled compounds were equilibrated overnight in liquid scintillation cocktail for radiometric detection (Ultima Gold, 6013321, Perkin Elmer) at room temperature. Detection of radioactivity counts was determined by a microplate counter for radiometric counting (MicroBeta, 2450, Perkin Elmer). Intensity of fluorescence signals was determined by a spectrofluorophotometer (FP 8300, Jasco Benelux BV, Utrecht, The Netherlands). 6-carboxyfluorescein was excited at 492 nm and emission was detected at 517/5 nm (center wavelength/bandwidth) and TRITC-dextrans were excited at 550 nm and detected at 575/5 nm. Background radioactivity and fluorescence signal from HBSS were subtracted from the measurements. […] Q is the flux of the test compound (μg/s), C0 is the initial concentration of the test compound at the apical side (μg/mL), and A is the surface area of the transwell membrane (cm^2).

[2] = system: epithelial (MDCK II) cell barrier; assay: as above; format: in vitro ADME, canine; conditions: for total permeated amount: 0 MPa (sham, absence of USMB), 120 min, apical-to-basolateral; for effect of USMB on permeability across epithelial barrier: increasing ultrasound pressures 0.3-0.7 MPa vs sham
Experimental: as §1

[3] = system: endothelial (HUVEC) barrier; assay: Permeability of model drugs across endothelial (HUVEC) barrier on transwell; format: in vitro ADME, Human
Source text: Supplementary Information: The Effect of Microbubble-As-sisted Ultrasound on Molecular Permeability across Cell Barri- […]
Charis Rousou, Josanne de Maar, Boning Qiu, Kim van der Wurff-Jacobs, Marika Ruponen, Arto Urtti, Sabrina Oliveira, Chrit Moonen, Gert Storm, Enrico Mastrobattista and Roel Deckers SI-1. Materials and methods
SI-1.1. Culture of endothelial cells
Human umbilical vein endothelial cells (HUVEC) were acquired from Lonza (Verviers, Belgium) and cultured in Endothelial Basal Medium (EBM-2) supplemented with growth factors (Growth Medium 2 SupplementMix®, PromoCell, Heidelberg Germany) and 0.1% antibiotics (gentamicin/amphotericin B, Gibco, New York, USA). Cells were sub-cultured 1-2 times per week in dilution ratios between 1:3-1:6 and were used up to passage number 7.
SI-1.2. Differentiation of endothelial cells […]
The effect of USMB treatment on the viability of epithelial cells was examined using the AlamarBlue assay. […] Next, the solution from the apical side was removed and fluorescence intensity was analyzed with a spectrofluorophotometer (FP 8300, Jasco) at excitation and emission wavelengths of 571 nm and 584/5 nm (center wavelength/bandwidth), respectively. Cell viability of each group was calculated as percentage fluorescent signal relative to that of sham treated cells. […]

[4] = cited from earlier work; for Hydrophilic/Lipophilic: classification in Table 1

Structure (SMILES) | Papp A→B at 120 min, 200 µM [1] | total permeated amount [2] | effect of USMB on permeability across epithelial barrier [2] | permeated amount ([3]; control samples (0 MPa), 120 minutes, endothelial barrier) | Papp endothelial (HUVEC) barrier relative to epithelial (MDCK II) barrier ([3]; sham treatment, absence of USMB) | Hydrophilic/Lipophilic [4] | LogD ([4]; octanol/water partition coefficient at pH 7.4)
O=C(O)c1ccc(C(=O)O)c(-c2c3ccc(=O)cc-3oc3cc(O)ccc23)c1 [6-carboxyfluorescein] | 0.06 ×10⁻⁶ cm/s | 4.06% and 4.1 ± 0.5% | did not have a significant effect; also recorded: lack of measurable effect | 5.14% | 22 times and ~ 20 times | Hydrophilic | −3.2
OC[C@@H](O)[C@@H](O)[C@H](O)[C@H](O)CO [Mannitol, mannitol] | – | 5.6 ± 1.4% | did not have a significant effect; also recorded: lack of measurable effect | – | – | Hydrophilic | –
CC(C)NCC(O)COc1cccc2ccccc12 (stereo not shown) [Propranolol, propranolol] | – | 29.1 ± 2.2% | did not have a significant effect | – | – | Lipophilic | –
